Data published in article PMC6271036, “Antimalarial Evaluation of the Chemical Constituents of Hairy Root Culture of Bixa orellana L” (Molecules, 2014).
pEC50: −log10 of the molar value. “Also recorded” adds a separate entry of the source.

Assays:
[1] = tested on: malaria strains 3D7 and K1; assay: in vitro anti-plasmodium activity, strain not told apart; format: cell-based, Plasmodium falciparum
Description: (§1) The crude extract from culture medium and roots (compound 17), a combination of MeJA derivatives (compound 16), and its individual isolated components were tested in vitro for anti-plasmodium activity against malaria strains 3D7 and K1, as described in previously developed assays. Pure compounds were prepared as 10 mM or 2 mM stock solutions in DMSO.
Parasites were grown in Petri dishes in the presence of fresh group O-positive erythrocytes (hematocrit 4%–6%) in RPMI 1640 (pH 7.3) supplemented with 0.5% AlbuMAX II, 25 mM HEPES, 25 mM NaHCO3, 100 μg/mL hypoxanthine, and 5 μg/mL gentamycin. Cultures were incubated at 37 °C with 5% O2 and 5% CO2. Compounds were prepared as 10 mM stock solutions in DMSO (except compound 18) to measure EC50. The stock solutions were plated in 384-well plates, serially diluted (1:3) in DMSO. Compounds were then transferred to a 384-well assay plate containing 20 μL of RPMI 1640 with 5 μg/mL gentamycin by using a 384-head pin tool. Twenty μL of a synchronized culture suspension (1% rings, 4% hematocrit) was added to each well (final hematocrit and parasitemia, of 2% and 1%, respectively). The final DMSO concentration was 0.65%. Assay plates were incubated for 72 h and parasitemia was measured by using a previously described DNA stain-based assay. The MAR3D7 growth inhibition assay was used for the chloroquine-sensitive 3D7 strain of P. falciparum, and quantified growth by using DNA dyes. The experiment required a total of 96 h, including a 72 h incubation with test compounds. Positive controls were chloroquine and mefloquine. The MARK1 growth inhibition assay was used for the K1 strain of P. falciparum, known to be resistant to both chloroquine and pyrimethamine due to expression of the chloroquine resistance transporter and upregulation of the multi-drug resistance efflux pump. Growth was quantitated by using DNA dyes. The experiment required a total of 96 h, including a 72 h incubation with test compounds. Positive controls were chloroquine and mefloquine.

[2] = tested on: W2 strain of P. falciparum; parameters: method as in earlier work; conditions: 15 mg/Kg, mice; cited from earlier work
[3] = tested on: K1 strain of P. falciparum; assay: MARK1 growth inhibition assay (DNA dye); format: cell-based, Plasmodium falciparum; conditions: 72 h incubation
Description: as §1
(§2) Parasites were grown in Petri dishes in the presence of fresh group O-positive erythrocytes (hematocrit 4%–6%) in RPMI 1640 (pH 7.3) supplemented with 0.5% AlbuMAX II, 25 mM HEPES, 25 mM NaHCO3, 100 μg/mL hypoxanthine, and 5 μg/mL gentamycin. Cultures were incubated at 37 °C with 5% O2 and 5% CO2. Compounds were prepared as 10 mM stock solutions in DMSO (except compound 18) to measure EC50. The stock solutions were plated in 384-well plates, serially diluted (1:3) in DMSO. Compounds were then transferred to a 384-well assay plate containing 20 μL of RPMI 1640 with 5 μg/mL gentamycin by using a 384-head pin tool. […] Assay plates were incubated for 72 h and parasitemia was measured by using a previously described DNA stain-based assay. The MAR3D7 growth inhibition assay was used for the chloroquine-sensitive 3D7 strain of P. falciparum, and quantified growth by using DNA dyes. […] Growth was quantitated by using DNA dyes. […]

[4] = tested on: chloroquine-sensitive 3D7 strain of P. falciparum; assay: MAR3D7 growth inhibition assay (DNA dye); format: cell-based, Plasmodium falciparum; conditions: 72 h incubation
Description: as §1, §2

C[C@H]1CCC[C@@]23CC4C(C[C@]12C)C4(C)C3 [Compound 1, (2aS,6S,6aR)-1,6,6a-trimethyldecahydro-1,2a-methanocyclopropa[b]naphthalene]
antimalarial activity (in words) [1]: promising antimalarial activity

CC(C)=CCC/C(C)=C/CC/C(C)=C/CC[C@]1(C)CCc2cc(O)cc(C)c2O1 [Compound 3, δ-tocotrienol]
antimalarial activity (in words) [1]: promising antimalarial activity

CC[C@H](CC[C@@H](C)[C@H]1CC[C@H]2[C@@H]3CC=C4C[C@@H](O)CC[C@]4(C)[C@H]3CC[C@]12C)C(C)C [Compound 6, β-sitosterol]
in vivo antimalarial activity [2]: active

C[C@@H]1CC[C@]2(C(=O)O)CC[C@]3(C)C(=CC[C@@H]4[C@@]5(C)C[C@@H](O)[C@H](O)C(C)(C)[C@@H]5CC[C@]43C)[C@@H]2[C@]1(C)O [tormentic acid, reference compound]
in vivo antimalarial activity [2]: active

(3S,9S,10S,13R,17R)-17-((2R,5S,E)-5-ethyl-6-methylhept-3-en-2-yl)-9,10,13-trimethyl-2,3,4,7,8,9,10,11,12,13,14,15,16,17-tetradecahydro-1H-cyclopenta[a]phenanthren-3-ol [Compound 5]
pEC50 [3]: 5.30 | antimalarial activity (in words) [1]: promising antimalarial activity; also recorded: most potent compound lead | pEC50 [4]: 5.52
